In this experiment the target is T1, human Nav1.8 (hNav1.8) ion channel (Homo sapiens, UniProt Q9Y5Y9).
T1 construct: expressed in transfected cells; host or cells: HEK293
Put plainly: Nav1.8 channel inhibition, estimated IC50 (one or more of: fluorescence inhibition assay, PatchXpress, IonFlux HT automated patch clamp). The settings on record: HEK293 cells stably expressing hNav1.8; method used per compound not stated; read-out: Activity range (estimated IC50). It counts as cell-based. The procedure, abridged: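 HEK293 cells stably expressing hNav1.8 with β1/β2 subunits; IC50 from the fluorescence assay and/or automated whole-cell patch clamp (PatchXpress, IonFlux HT). Fluorescence: ANG-2 Na dye, 5 min compound preincubation (0.02–5 μM, 1% DMSO) with 30 μM ouabain, stimulation by 10 μM deltamethrin, peak signal fit logistically. PatchXpress: holding potential reset to Vhalf, inhibition normalized to control/washout currents.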

These results are taken from patent US12234221B2, “Pyridine carboxamide compounds for inhibiting NAV1.8” (Lieber Institute, Inc., priority 2018, dated 2025).

For orientation: IC50 means the point on the concentration scale where inhibition reaches its midpoint.

Each structure is given as a SMILES string.

T1 sequence (Q9Y5Y9 whole entry): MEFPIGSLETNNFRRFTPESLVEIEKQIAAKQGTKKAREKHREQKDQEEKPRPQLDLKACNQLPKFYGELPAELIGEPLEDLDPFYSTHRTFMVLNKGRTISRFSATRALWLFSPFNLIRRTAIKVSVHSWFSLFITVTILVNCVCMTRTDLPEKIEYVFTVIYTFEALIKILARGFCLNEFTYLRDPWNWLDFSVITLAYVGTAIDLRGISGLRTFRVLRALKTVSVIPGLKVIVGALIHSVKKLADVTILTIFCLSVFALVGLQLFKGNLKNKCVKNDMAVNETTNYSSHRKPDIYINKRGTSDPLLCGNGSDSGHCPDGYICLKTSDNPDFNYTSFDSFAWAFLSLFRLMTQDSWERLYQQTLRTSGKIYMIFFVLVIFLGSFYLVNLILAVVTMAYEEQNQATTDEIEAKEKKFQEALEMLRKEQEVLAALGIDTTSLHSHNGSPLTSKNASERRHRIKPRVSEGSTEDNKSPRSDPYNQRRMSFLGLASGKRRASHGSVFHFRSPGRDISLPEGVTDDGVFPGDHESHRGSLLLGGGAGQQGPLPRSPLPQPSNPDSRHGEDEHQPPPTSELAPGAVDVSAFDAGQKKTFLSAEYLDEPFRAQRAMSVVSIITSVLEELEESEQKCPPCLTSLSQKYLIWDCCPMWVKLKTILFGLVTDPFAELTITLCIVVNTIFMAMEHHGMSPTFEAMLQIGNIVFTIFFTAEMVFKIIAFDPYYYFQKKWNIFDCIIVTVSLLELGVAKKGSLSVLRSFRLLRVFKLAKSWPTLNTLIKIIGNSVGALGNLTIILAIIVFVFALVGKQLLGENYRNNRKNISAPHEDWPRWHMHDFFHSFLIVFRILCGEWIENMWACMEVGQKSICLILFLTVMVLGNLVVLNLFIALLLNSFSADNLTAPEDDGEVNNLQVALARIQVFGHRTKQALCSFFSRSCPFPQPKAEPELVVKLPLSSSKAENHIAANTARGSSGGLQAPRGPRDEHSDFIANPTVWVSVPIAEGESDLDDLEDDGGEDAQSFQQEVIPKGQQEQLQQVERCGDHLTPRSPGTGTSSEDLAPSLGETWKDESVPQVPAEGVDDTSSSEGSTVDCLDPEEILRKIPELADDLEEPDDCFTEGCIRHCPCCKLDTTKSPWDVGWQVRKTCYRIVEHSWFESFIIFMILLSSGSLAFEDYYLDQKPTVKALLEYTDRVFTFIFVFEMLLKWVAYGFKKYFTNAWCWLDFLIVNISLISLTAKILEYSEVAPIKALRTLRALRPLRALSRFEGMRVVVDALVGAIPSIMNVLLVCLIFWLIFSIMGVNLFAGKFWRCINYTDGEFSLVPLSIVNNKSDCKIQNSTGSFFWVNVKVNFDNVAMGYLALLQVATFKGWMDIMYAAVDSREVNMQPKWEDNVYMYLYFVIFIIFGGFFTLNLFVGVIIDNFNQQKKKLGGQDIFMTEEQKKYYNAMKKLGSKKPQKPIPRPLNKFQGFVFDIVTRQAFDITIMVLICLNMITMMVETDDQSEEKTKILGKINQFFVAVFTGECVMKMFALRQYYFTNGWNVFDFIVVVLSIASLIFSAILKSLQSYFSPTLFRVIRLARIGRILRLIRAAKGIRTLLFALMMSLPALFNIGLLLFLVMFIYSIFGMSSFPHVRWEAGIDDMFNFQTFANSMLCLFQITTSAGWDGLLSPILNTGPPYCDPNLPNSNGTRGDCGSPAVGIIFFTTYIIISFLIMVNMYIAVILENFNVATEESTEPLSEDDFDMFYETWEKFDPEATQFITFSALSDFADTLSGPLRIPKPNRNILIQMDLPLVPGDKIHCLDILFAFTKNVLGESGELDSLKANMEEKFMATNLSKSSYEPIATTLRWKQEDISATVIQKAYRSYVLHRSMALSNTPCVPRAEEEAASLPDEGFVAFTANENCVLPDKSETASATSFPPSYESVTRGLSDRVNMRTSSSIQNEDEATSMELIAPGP

On to `Cc1cc(F)ccc1Oc1ncc(C(F)(F)F)cc1C(=O)Nc1cc[nH]c(=O)c1` [Example 110, 2-(4-fluoro-2-methyl-phenoxy)-N-(2-oxo-1H-pyridin-4-yl)-5-(trifluoromethyl)pyridine-3-carboxamide], for which the IC50 is > 1000 nM.
The figure for `COc1cc(F)ccc1Oc1ncc(Br)cc1C(=O)Nc1cccc(S(C)(=O)=O)c1` [Example 111, 5-bromo-2-(4-fluoro-2-methoxy-phenoxy)-N-(3-methylsulfonylphenyl)pyridine-3-carboxamide] is > 1000 nM.
With `COc1cc(F)ccc1Oc1ncc(C2CC2)cc1C(=O)Nc1cccc(S(C)(=O)=O)c1` [Example 112, 5-cyclopropyl-2-(4-fluoro-2-methoxy-phenoxy)-N-(3-methylsulfonylphenyl)pyridine-3-carboxamide] the figure was > 1000 nM.
On to `Cc1cc(F)ccc1Oc1ncc(C(F)(F)F)cc1C(=O)Nc1cccc(S(C)(=O)=O)c1` [Example 113, 2-(4-fluoro-2-methyl-phenoxy)-N-(3-methylsulfonylphenyl)-5-(trifluoromethyl)pyridine-3-carboxamide], for which the IC50 was 500 to 1000 nM.
Turning to `CN=S(C)(=O)c1cccc(NC(=O)c2cc(C(F)(F)F)cnc2Oc2ccc(F)cc2C)c1` (stereo not drawn) [Example 114, N-[3-(N,S-dimethylsulfonimidoyl)phenyl]-2-(4-fluoro-2-methyl-phenoxy)-5-(trifluoromethyl)pyridine-3-carboxamide], the IC50 was < 500 nM.
With `Cc1cc(F)ccc1Oc1ncc(C(F)(F)F)cc1C(=O)Nc1cccc(S(C)(=N)=O)c1` (stereo not drawn) [Example 115, 2-(4-fluoro-2-methyl-phenoxy)-N-[3-(methylsulfonimidoyl)phenyl]-5-(trifluoromethyl)pyridine-3-carboxamide] the figure was < 500 nM; with `Cc1cc(F)ccc1Oc1ncc(C(F)(F)F)cc1C(=O)Nc1ccnnc1` [Example 116, 2-(4-fluoro-2-methyl-phenoxy)-N-pyridazin-4-yl-5-(trifluoromethyl)pyridine-3-carboxamide], > 1000 nM.
For the compound `COc1cc(F)ccc1Oc1nc(C)ccc1C(=O)Nc1cccc(S(C)(=O)=O)c1` [Example 117, 2-(4-fluoro-2-methoxy-phenoxy)-6-methyl-N-(3-methylsulfonylphenyl)pyridine-3-carboxamide], the IC50 was > 1000 nM.
On to `COc1cc(F)ccc1Oc1nc(C)c(C)cc1C(=O)Nc1cccc(S(C)(=O)=O)c1` [Example 118, 2-(4-fluoro-2-methoxy-phenoxy)-5,6-dimethyl-N-(3-methylsulfonylphenyl)pyridine-3-carboxamide], for which the IC50 is < 500 nM.
`COc1cc(F)ccc1Oc1ncc(Cl)cc1C(=O)Nc1cccc(S(C)(=O)=O)c1` [Example 119, 5-chloro-2-(4-fluoro-2-methoxy-phenoxy)-N-(3-methylsulfonylphenyl)pyridine-3-carboxamide]: the IC50 was 500 to 1000 nM.
`COc1cc(F)ccc1Oc1nc2c(cc1C(=O)Nc1cccc(S(C)(=O)=O)c1)CCC2` [Example 120, 2-(4-fluoro-2-methoxy-phenoxy)-N-(3-methylsulfonylphenyl)-6,7-dihydro-5H-cyclopenta[b]pyridine-3-carboxamide]: the half-maximal inhibitory concentration (IC50) was < 500 nM.
As to `C[S+]([O-])c1cccc(NC(=O)c2cc(C(F)(F)F)cnc2Oc2ccc(OC(F)(F)F)cc2)c1` (stereo not drawn) [Example 121, N-(3-methylsulfinylphenyl)-2-[4-(trifluoromethoxy)phenoxy]-5-(trifluoromethyl)pyridine-3-carboxamide], the half-maximal inhibitory concentration (IC50) was < 500 nM.
With `NS(=O)(=O)c1cccc(NC(=O)c2cc(C(F)(F)F)cnc2Oc2ccc(OC(F)(F)F)cc2)c1` [Example 122, N-(3-sulfamoylphenyl)-2-[4-(trifluoromethoxy)phenoxy]-5-(trifluoromethyl)pyridine-3-carboxamide], the IC50 was < 500 nM.
Turning to `CS(=N)(=O)c1cccc(NC(=O)c2cc(C(F)(F)F)cnc2Oc2ccc(OC(F)(F)F)cc2)c1` (stereo not drawn) [Example 123, N-[3-(methylsulfonimidoyl)phenyl]-2-[4-(trifluoromethoxy)phenoxy]-5-(trifluoromethyl)pyridine-3-carboxamide], the concentration for half-maximal inhibition (IC50) is < 500 nM.
With `CN=S(C)(=O)c1cccc(NC(=O)c2cc(C(F)(F)F)cnc2Oc2ccc(OC(F)(F)F)cc2)c1` (stereo not drawn) [Example 124, N-[3-(N,S-dimethylsulfonimidoyl)phenyl]-2-[4-(trifluoromethoxy)phenoxy]-5-(trifluoromethyl)pyridine-3-carboxamide] the figure was < 500 nM.
As for `CCS(=O)(=O)c1cccc(NC(=O)c2cc(C(F)(F)F)cnc2Oc2ccc(OC(F)(F)F)cc2)c1` [Example 125, N-(3-ethylsulfonylphenyl)-2-[4-(trifluoromethoxy)phenoxy]-5-(trifluoromethyl)pyridine-3-carboxamide], the IC50 is < 500 nM.
As to `O=C(Nc1cccnc1)c1cc(C(F)(F)F)cnc1Oc1ccc(OC(F)(F)F)cc1` [Example 126, N-(3-pyridyl)-2-[4-(trifluoromethoxy)phenoxy]-5-(trifluoromethyl)pyridine-3-carboxamide], the half-maximal inhibitory concentration (IC50) was 500 to 1000 nM.
Regarding `O=C(Nc1ccncc1)c1cc(C(F)(F)F)cnc1Oc1ccc(OC(F)(F)F)cc1` [Example 127, N-(4-pyridyl)-2-[4-(trifluoromethoxy)phenoxy]-5-(trifluoromethyl)pyridine-3-carboxamide], the half-inhibitory concentration (IC50) is < 500 nM.
On to `O=C(Nc1ccnnc1)c1cc(C(F)(F)F)cnc1Oc1ccc(OC(F)(F)F)cc1` [Example 128, N-pyridazin-4-yl-2-[4-(trifluoromethoxy)phenoxy]-5-(trifluoromethyl)pyridine-3-carboxamide], for which the concentration for half-maximal inhibition (IC50) is < 500 nM.
With `CS(C)(=O)=Nc1cccc(NC(=O)c2cc(C(F)(F)F)cnc2Oc2ccc(OC(F)(F)F)cc2)c1` [Example 129, N-[3-[[dimethyl(oxo)-λ^6-sulfanylidene]amino]phenyl]-2-[4-(trifluoromethoxy)phenoxy]-5-(trifluoromethyl)pyridine-3-carboxamide], the 50% inhibitory concentration (IC50) is > 1000 nM.
Regarding `O=C(Nc1ccc[n+]([O-])c1)c1cc(C(F)(F)F)cnc1Oc1ccc(OC(F)(F)F)cc1` [Example 132, N-(1-oxidopyridin-1-ium-3-yl)-2-[4-(trifluoromethoxy)phenoxy]-5-(trifluoromethyl)pyridine-3-carboxamide], the IC50 is < 500 nM.
As to `Cc1cc(F)ccc1Oc1ncc(C(F)(F)F)cc1C(=O)Nc1ccc[n+]([O-])c1` [Example 133, 2-(4-fluoro-2-methyl-phenoxy)-N-(1-oxidopyridin-1-ium-3-yl)-5-(trifluoromethyl)pyridine-3-carboxamide], the 50% inhibitory concentration (IC50) is > 1000 nM.
Consider `COc1cc(F)ccc1Oc1ncc(C(F)(F)F)cc1C(=O)Nc1ccc[n+]([O-])c1` [Example 134, 2-(4-fluoro-2-methoxy-phenoxy)-N-(1-oxidopyridin-1-ium-3-yl)-5-(trifluoromethyl)pyridine-3-carboxamide], for which the IC50 was > 1000 nM.
Regarding `O=C(Nc1ccc[n+]([O-])c1)c1cc(C(F)(F)F)cnc1Oc1ccc(F)cc1F` [Example 135, 2-(2,4-difluorophenoxy)-N-(1-oxidopyridin-1-ium-3-yl)-5-(trifluoromethyl)pyridine-3-carboxamide], the IC50 is > 1000 nM.
In the case of `O=C(Nc1ccc[n+]([O-])c1)c1cc(C(F)(F)F)cnc1Oc1ccc(OC(F)F)cc1` [Example 136, 3-(2-(4-(difluoromethoxy)phenoxy)-5-(trifluoromethyl)nicotinamido)pyridine 1-oxide], the 50% inhibitory concentration (IC50) was < 500 nM.
Regarding `COc1ccc(Oc2ncc(C(F)(F)F)cc2C(=O)Nc2ccc[n+]([O-])c2)c(OC)c1` [Example 137, 3-(2-(2,4-dimethoxyphenoxy)-5-(trifluoromethyl)nicotinamido)pyridine 1-oxide], the 50% inhibitory concentration (IC50) is < 500 nM.
Consider `COc1ccc(Oc2ncc(C(F)(F)F)cc2C(=O)Nc2ccc[n+]([O-])c2)c(Cl)c1` [Example 138, 3-(2-(2-chloro-4-methoxyphenoxy)-5-(trifluoromethyl)nicotinamido)pyridine 1-oxide], for which the IC50 is < 500 nM.
Consider `O=C(Nc1cc[n+]([O-])cc1)c1cc(C(F)(F)F)cnc1Oc1ccc(OC(F)(F)F)cc1` [Example 141, N-(1-oxidopyridin-1-ium-4-yl)-2-[4-(trifluoromethoxy)phenoxy]-5-(trifluoromethyl)pyridine-3-carboxamide], for which the IC50 was < 500 nM.
For `CS(=O)(=O)c1cccc(NC(=O)c2cc(C(F)(F)F)cnc2Oc2ccc(OC(F)(F)F)cc2Cl)c1` [Example 142, 2-[2-chloro-4-(trifluoromethoxy)phenoxy]-N-(3-methylsulfonylphenyl)-5-(trifluoromethyl)pyridine-3-carboxamide], the half-inhibitory concentration (IC50) was < 500 nM.
Consider `CCS(=O)(=O)c1cccc(NC(=O)c2cc(C(F)(F)F)cnc2Oc2ccc(OC(F)(F)F)cc2Cl)c1` [Example 143, 2-[2-chloro-4-(trifluoromethoxy)phenoxy]-N-(3-ethylsulfonylphenyl)-5-(trifluoromethyl)pyridine-3-carboxamide], for which the IC50 was 500 to 1000 nM.
On to `CN=S(C)(=O)c1cccc(NC(=O)c2cc(C(F)(F)F)cnc2Oc2ccc(OC(F)(F)F)cc2Cl)c1` (stereo not drawn) [Example 144, 2-[2-chloro-4-(trifluoromethoxy)phenoxy]-N-[3-(N,S-dimethylsulfonimidoyl)phenyl]-5-(trifluoromethyl)pyridine-3-carboxamide], for which the half-inhibitory concentration (IC50) was < 500 nM.
On to `N#Cc1cccc(NC(=O)c2cc(C(F)(F)F)cnc2Oc2ccc(OC(F)(F)F)cc2Cl)c1` [Example 146, 2-[2-chloro-4-(trifluoromethoxy)phenoxy]-N-(3-cyanophenyl)-5-(trifluoromethyl)pyridine-3-carboxamide], for which the IC50 is < 500 nM.
As for `Cn1cc(NC(=O)c2cc(C(F)(F)F)cnc2Oc2ccc(OC(F)(F)F)cc2Cl)cn1` [Example 147, 2-[2-chloro-4-(trifluoromethoxy)phenoxy]-N-(1-methylpyrazol-4-yl)-5-(trifluoromethyl)pyridine-3-carboxamide], the IC50 was < 500 nM.
